Patent US20250137054A1, “COMPOSITION AND METHOD FOR EVALUATING RESPONSIVENESS OF EDARAVONE” (MITSUBISHI TANABE PHARMA CORPORATION, priority 2022, published 2025)

How the values were obtained:
Format in all cases: cell-based, human
[1] = tested on: ALS patient-derived neurons (iPS cell-derived motor neurons, heterozygous TARDBP mutation); experiment: Evaluation of cellular damage by live cell imaging, ALS patient-derived neurons; conditions: edaravone 30 μM, 24 hours
Description: (§1) Human induced pluripotent stem (iPS) cells were induced from cells derived from an ALS patient and cells derived from a healthy individual using a conventional method. The cells derived from the ALS patient were used that are known to have an ALS risk mutation as a heterozygous mutation in the TARDBP gene. Each iPS cell was differentiated into a motor neuron (hereinafter, also simply referred to as a “neuron”) using a conventional method. […]
A treatment was performed in which the culture medium dissolved with a dimethyl sulfoxide (DMSO) solution of the evaluation compound (edaravone) (final concentration: edaravone 30 μM, DMSO 0.03% v/v) was brought into contact with the neurons after 7 days of cultivation, and occurrence of cellular damage was evaluated over time. […]
Evaluation of cellular damage was performed by live cell imaging using IncuCyte S3 (Sartorius) and Cytotox (Sartorius, 4846) according to an attached protocol. The neurite length per unit area (unit: mm/mm^2) and the number of dead cells (unit: count/image) were analyzed over time and used as evaluation indicators. […]

[2] = tested on: TDP-43 in ALS patient-derived neurons; experiment: TDP-43 localization evaluation, ALS patient-derived neurons; conditions: edaravone treatment, after 24 hours, DMSO group = 100 (FIG. 15)
From the text: as §1
(§2) Intracellular localization of TDP-43 polypeptides was evaluated by immunofluorescence staining of neurons. […] After further nuclear staining, washing with PBS, and imaging under a fluorescence microscope were performed. The captured images were analyzed using Matlab (Mathworks), and fluorescence intensities of TDP-43 in a nuclear region and in a cytoplasmic region were respectively calculated. […]
(§3) Regarding the intracellular localization of TDP-43 polypeptides, the nuclear and cytoplasmic TDP-43 fluorescence intensities and the cytoplasmic/nuclear TDP-43 intensity ratios in ALS cells and healthy cells are shown in FIG. 15. […]

[3] = tested on: TDP-43 in healthy individual-derived neurons; experiment: TDP-43 localization evaluation, healthy individual-derived neurons; conditions: edaravone treatment, DMSO group = 100 (FIG. 15)
From the text: as §1, §2, §3

SMILES: CC1=NN(c2ccccc2)C(=O)C1 [edaravone, 5-methyl-2-phenyl-2,4-dihydro-3H-pyrazol-3-one]
- neurite length (rate of change, DMSO group = 100) ([1]; vs DMSO-treated group (FIG. 13)): significantly increased
- number of dead neurons (rate of change, DMSO group = 100) ([1]; vs DMSO-treated group (FIG. 14)): significantly decreased
- cytoplasmic TDP-43 intensity [2]: significantly decreased
- cytoplasmic/nuclear TDP-43 intensity ratio [2]: significantly decreased
- effect of decreasing the cytoplasmic/nuclear TDP-43 intensity ratio [3]: not observed
